# Patent US20170081383A1, “MELANOCORTIN ANALOGS HAVING ENHANCED ACTIVITY AND TRANSPORT” (Tensive Controls Inc., priority 2012, published 2017)
# Entries after “also recorded” stand apart in the source; their conditions may differ. Positions of bridges follow the written chain, without caps; N, C: chain ends. Non-standard residues stand in square brackets, D forms with d. Residues, ends and D or L forms follow the SMILES beside them. β2Val = β2-Val (beta2-Val), beta-amino acid; d2Nal = N[C@H](Cc1ccc2ccccc2c1)C(=O)O; β3hV = CC(C)[C@H](N)CC(=O)O; β3hP = O=C(O)C[C@@H]1CCCN1; Nle = CCCC[C@H](N)C(=O)O
# What was measured:
# [1] = test system: LPS-induced cachexia in rats; experiment: Lipopolysaccharide (LPS)-induced cachexia assay; type: in vivo, rat; conditions: for peripheral (IP) anti-cachexia activity, feeding (in words): peripheral / intraperitoneal administration after LPS; for blood-brain barrier transport (concluded from peripheral vs ICV activity) / anti-cachectic activity after ICV (IVt) administration (in words): LPS model; for anti-cachectic activity after ICV (IVt) administration (in words): intracerebroventricular administration
# Description: The LPS model uses rats were maintained on a 12 h light/dark schedule with ad libitum access to food and water. Animals were handled daily for a minimum of three consecutive days to decrease non-specific handling stress. On the day of the experiment, individually housed animals received intraperitoneal injections of LPS dissolved in 0.5% low-endotoxin BSA, 0.9% saline or 0.5% BSA in 0.9% saline alone, and were returned to their home cage. The drug or control was administered (ICV, IP, or PO, depending on the type of study) 1-hour after LPS injection.
# In the experiments described herein, a series of melanocortin receptor antagonist peptides were examined in a bacterial endotoxin inducing cachexia assay. For this assay, a rat is challenged with a single peripheral injection of lipopolysaccharide (LPS). LPS is a heat-stable lipo-polysaccharide, the major component of the outer membrane (capsule) of gram negative bacteria. In non-capsulated strains, it appears as a cell surface […]. LPS produces a strong immune response, including secretion of the proinflammatory cytokines Tumor Necrosis Factor α (TNFα) and interleukin-1 (IL-1). Proinflammatory cytokines are known factors that induce cachexia.
# Rats are maintained on a 12-hour light/dark cycle. Animals are handled daily for a minimum of 5 consecutive days to acclimate them to the handling required for the experiment. […] On the day of the experiment, individually housed animals receive intraperitoneal (IP) injections of LPS dissolved in 0.5% low-endotoxin BSA, 0.9% saline or 0.5% BSA in 0.9% saline alone, and returned in their home cage. Melanocortin receptor antagonist peptides were administered (IP or by gavage, depending on the type of study) one hour after the LPS injection. The extent of cachexia is measured by the reduction in food intake, measured every two hours. The cachexia typically lasts only a single day. However, rats lose up to 5% of their body weight during a 12-hour light cycle, making up this loss plus food needed for normal growth during the 12-hour dark cycle. Thus, failure to eat appropriately during a single dark cycle is determinable from the animal's weight and any changes thereof.
# A series of melanocortin receptor antagonist peptides were examined in a bacterial toxin inducing cachexia assay. In this assay, a rat was challenged with a single peripheral injection of lipopolysaccharide (LPS), a bacterial toxin that rapidly induces acute cachexia. The extent of cachexia was measured as a reduction in food intake, measured every two hours. The cachexia typically lasts only a single day.
# [2] = test system: urethane-anesthetized rats; experiment: Cardiovascular activity of melanocortin peptides (MAP, heart rate, ECG); conditions: for Duration / Peak Heart Rate Response (BPM) / Peak MAP Response (Δ mm Hg): 250 nmol, n = 5
# Description: These studies were performed in urethane-anesthetized rats, since anesthesia is required for six-lead ECG monitoring. […] Initial selection of doses was guided by FDA exploratory IND studies with a recommendation for at least a 100-fold excess of the human dose.
compound,measurement,setting,value
Ac-Nle-c[Asp-Pro-D-Nal(2′)-Arg-Trp-Lys]-D-Val-D-Pro-OH (Ac-[Nle]DP[d2Nal]RWK[dV][dP]-OH; lactam 2-7) [TCMCB07A],"peripheral (IP) anti-cachexia activity, feeding (in words)",[1],equivalent stimulation of feeding
Ac-Nle-c[Asp-Pro-D-Nal(2′)-Arg-Trp-Lys]-β^2-Val-β^3-Pro-NH2 (Ac-[Nle]DP[d2Nal]RWK[β2Val][β3hP]-NH2; lactam 2-7) [TCMCB08],blood-brain barrier transport (concluded from peripheral vs ICV activity),[1],good blood-brain barrier transport
same,oral activity / gastrointestinal transport (in words),"[1]; gavage (intra-gastric) administration, LPS cachexia",not as much oral activity as TCMCB07; also recorded: no gastrointestinal transport
same,"peripheral (IP) anti-cachexia activity, feeding (in words)",[1],has peripheral activity
Ac-Nle-c[Asp-Pro-D-Nal(2′)-Arg-Trp-Lys]-β^3-Pro-β^3-Val-NH2 (Ac-[Nle]DP[d2Nal]RWK[β3hP][β3hV]-NH2; lactam 2-7) [TCMCB06],"food intake, 24 hours after LPS challenge","[1]; 0.2 mg/kg intraperitoneally, FIG. 8A",ate significantly less food than the other drug candidates
same,"body weight (percent of pre-LPS baseline), 24 hours after LPS challenge","[1]; 0.2 mg/kg intraperitoneally, FIG. 8B",no weight gain
same,molar activity relative to TCMCB02,"[1]; ICV administration, LPS-induced cachexia",10 fold
same,anti-cachectic activity after ICV (IVt) administration (in words),[1],molar activity equivalent to TCMCB02
same,"peripheral (IP) anti-cachexia activity, feeding (in words)",[1],only TCMCB05 (β^3-Pro-β^2-Val) had IP anti-cachexia activity; also recorded: only TCMCB05 had peripheral anti-cachexia activity
"CCCC[C@H](NC(C)=O)C(=O)N[C@H]1CC(=O)NCCCC[C@@H](C(=O)O)NC(=O)[C@H](Cc2c[nH]c3ccccc23)NC(=O)[C@H](CCCN=C(N)N)NC(=O)[C@@H](Cc2ccccc2)NC(=O)[C@H](Cc2cnc[nH]2)NC1=O [PT-141, Ac-Nle-c[Asp-His-D-Phe-Arg-Trp-Lys]-COOH]",Duration,[2],140 ± 53 min
same,Peak Heart Rate Response (BPM),[2],44 ± 6 BPM
same,Peak MAP Response (Δ mm Hg),[2],32 ± 6 mm Hg
same,lethality,"[2]; 900 nmol/kg IV, FIG. 1C",lethal dose
same,MAP reached after dosing,"[2]; 900 nmol/kg IV, baseline MAP 80 mmHg, then precipitously falling",140 mmHg
same,heart rate course after dosing,"[2]; 900 nmol/kg IV, baseline heart rate 312",progressively fell
same,ECG tracing (lead 2) finding,"[2]; IV 600 nmol/kg, FIG. 1A-B",inverted P-wave
Ac-Nle-c[Asp-Pro-D-Nal(2′)-Arg-Trp-Lys]-β^3-Pro-β^3-Pro-NH2 (Ac-[Nle]DP[d2Nal]RWK[β3hP][β3hP]-NH2; lactam 2-7; SMILES CCCC[C@H](NC(C)=O)C(=O)N[C@H]1CC(=O)NCCCC[C@@H](C(=O)N2CCC[C@H]2CC(=O)N2CCC[C@H]2CC(N)=O)NC(=O)[C@H](Cc2c[nH]c3ccccc23)NC(=O)[C@H](CCCNC(=N)N)NC(=O)[C@@H](Cc2ccc3ccccc3c2)NC(=O)[C@@H]2CCCN2C1=O) [TCMCB10],blood-brain barrier transport (concluded from peripheral vs ICV activity),[1],failure to cross the blood-brain barrier
same,anti-cachectic activity after ICV (IVt) administration (in words),[1],maintaining direct inhibitory effects
same,"peripheral (IP) anti-cachexia activity, feeding (in words)",[1],no peripheral activity
Ac-Ser-Tyr-Nle-Glu-His-D-Phe-Arg-Trp-Gly-Lys-Pro-Val-NH2 [MT-I],Duration,[2],0 min
same,Peak Heart Rate Response (BPM),[2],0/0 BPM
same,Peak MAP Response (Δ mm Hg),[2],0/0 mm Hg
Ac-Nle-c[D-Asp-Pro-D-Nal(2′)-Arg-Trp-D-Lys]-D-Pro-D-Val-NH2 (Ac-[Nle][dD]P[d2Nal]RW[dK][dP][dV]-NH2; lactam 2-7) [TCMCB04],blood-brain barrier transport (concluded from peripheral vs ICV activity),[1],eliminated blood brain barrier transport; also recorded: no transport across the blood-brain barrier
same,anti-cachectic activity after ICV (IVt) administration (in words),[1],superior anti-cachectic activity compared to the parent compound
same,"peripheral (IP) anti-cachexia activity, feeding (in words)",[1],No difference was observed between the peptide and saline
"CCCC[C@H](NC(C)=O)C(=O)N[C@H]1CC(=O)NCCCC[C@@H](C(=O)N2CCC[C@@H]2C(=O)N[C@@H](C(N)=O)C(C)C)NC(=O)[C@H](Cc2c[nH]c3ccccc23)NC(=O)[C@H](CCCNC(=N)N)NC(=O)[C@@H](Cc2ccc3ccccc3c2)NC(=O)[C@@H]2CCCN2C1=O [TCMCB02, Ac-Nle-c[Asp-Pro-D-Nal(2′)-Arg-Trp-Lys]-D-Pro-D-Val-NH2] (Ac-[Nle]DP[d2Nal]RWK[dP][dV]-NH2; lactam 2-7 (inferred))",cardiovascular and behavioral side effects (in words),[2]; rats,no cardiovascular or dose-limiting behavioral side effects
same,blood-brain barrier transport (concluded from peripheral vs ICV activity),[1],only has blood-brain barrier transport
Ac-Nle-c[Asp-His-D-Nal(2′)-Arg-Trp-Lys]-NH2 [SHU9119],Peak Heart Rate Response (BPM),[2],3 ± 14 BPM
same,Peak MAP Response (Δ mm Hg),[2],16 ± 5 mm Hg
Ac-Nle-c[Asp-Pro-D-Nal(2′)-Arg-Trp-Lys]-β^3-Val-β^3-Pro-NH2 (Ac-[Nle]DP[d2Nal]RWK[β3hV][β3hP]-NH2; lactam 2-7) [TCMCB09],"peripheral (IP) anti-cachexia activity, feeding (in words)",[1],inactive peripherally
Ac-Nle-c[Asp-His-D-Nal(2′)-Arg-Trp-Lys]-D-Pro-D-Val-NH2 (Ac-[Nle]DH[d2Nal]RWK[dP][dV]-NH2; lactam 2-7; SMILES CCCC[C@H](NC(C)=O)C(=O)N[C@H]1CC(=O)NCCCC[C@@H](C(=O)N2CCC[C@@H]2C(=O)N[C@@H](C(N)=O)C(C)C)NC(=O)[C@H](Cc2c[nH]c3ccccc23)NC(=O)[C@H](CCCNC(=N)N)NC(=O)[C@@H](Cc2ccc3ccccc3c2)NC(=O)[C@H](Cc2c[nH]cn2)NC1=O) [TCMCB03],blood-brain barrier transport (concluded from peripheral vs ICV activity),[1],failed to cross the blood brain barrier; also recorded: less blood-brain barrier transport activity
same,anti-cachectic activity after ICV (IVt) administration (in words),[1],enhanced anti-cachexia; also recorded: superior anti-cachexia activity following ICV administration
same,"peripheral (IP) anti-cachexia activity, feeding (in words)",[1],did not possess as good peripheral
